Results as given in US8354447B2, “mGLU receptors antagonists for treating disorders associated with mGLU receptors including addiction and depression” (The Scripps Research Institute, priority 2002, dated 2013).
Counter-ions that a name gives are not always drawn. Like-named read-outs stand apart in the source and are kept apart here.

Assays:
male Wistar rats [1] = tested on: male Wistar rats
Description: Animals were trained to respond according to a modification of the discrete-trial current-threshold procedure of Kornetsky and Esposito (Fed Proc 38:2473-2476, 1979), which has been described in detail previously (Markou and Koob, 1992 Physiol Behav 51:111-119). Briefly, a trial was initiated by the delivery of a non-contingent electrical stimulus. […] The current intensity delivered was adjusted for each animal and typically ranged from 50 to 200 μA. […] After a variable inter-trial interval (7.5-12.5 sec, average of 10 sec), another trial was initiated with the delivery of a non-contingent electrical stimulus. […] Responding during the inter-trial interval delayed the onset of the next trial by 12.5 sec. Current levels were varied in alternating descending and ascending series. A set of three trials was presented for each current intensity. Current intensities were altered in 5 μA steps. In each testing session, four alternating descending-ascending series were presented. […] The overall threshold of the session was defined as the mean of the thresholds for the four individual series. Each testing session was ˜30 min in duration. The latency between the onset of the non-contingent stimulus and a positive response was recorded as the response latency. The response latency for each test session was defined as the mean response latency of all trials during which a positive response occurred. After establishment of stable ICSS reward thresholds, rats were tested in the ICSS procedure once daily except for the spontaneous nicotine withdrawal experiment when rats were tested at time-points according to the experimental design.
Systemic administration experiments. These experiments investigated whether nicotine withdrawal, as measured by elevations in ICSS thresholds, could be precipitated in nicotine-treated rats by systemic administration of an agonist at mGluII receptors (LY314582), an agonist at GABAB receptors (CGP44532), or antagonists at mGlu5 (MPEP), NMDA (MK-801) or AMPA/Kainate (NBQX) glutamate receptors. For each drug tested, rats were trained in the ICSS paradigm until stable baseline responding was achieved, defined as ≦10% variation in thresholds for 3 consecutive days and requiring approximately 14 days of daily testing. […] One group was then prepared with subcutaneous osmotic mini-pumps delivering vehicle and the second group with mini-pumps delivering 9 mg/kg/day nicotine hydrogen tartrate (3.16 mg/kg/day nicotine free base). There was a minimum seven-day interval after mini-pump implantation, during which ICSS reward thresholds continued to be measured daily, before the effect of any systemically administered drug on reward thresholds was evaluated.

drug-naïve rats = details: previous studies (Harrison et al., 2002; Macey et al., 2001); cited from earlier work
male Wistar rats [2] = assay: Reward deficits during amphetamine withdrawal (ICSS thresholds, response latencies, body weight)
Method: Male Wistar rats (Charles River, Hollister, Calif.) (300-320 g at the start of the experiments) were housed in pairs in a temperature and humidity controlled environment with a 12 hr light/dark cycle. Food and water were available ad libitum. A different set of subjects was used for each experiment. All subjects were treated in accordance with the National Institutes of Health “Guide for the Care and Use of Laboratory Animals,” and the animal facilities and the experimental protocols were in accordance with the Association for the Assessment and Accreditation of Laboratory Animal Care. Most of the behavioral testing was conducted during the light phase of the subjects' light/dark cycle, unless otherwise dictated by the experimental design due to time-course assessment of behavioral parameters. Apparatus The experimental apparatus consisted of 16 Plexiglas chambers (30.5×30×17 cm) (Med Associates Inc., St. Albans, Vt.) encased in sound-attenuating boxes (San Diego Instruments, San Diego, Calif.). Each operant chamber consisted of a stainless steel grid floor and a metal wheel manipulandum located on one wall, which required a 0.2 N force to rotate it a quarter turn. Gold-contact swivel commutators and bipolar leads connected the animals in the stimulation circuit (Plastics One, Roanoke, Va.). Brain stimulation was administered by constant current stimulators (Stimtek 1200, San Diego Instruments, San Diego, Calif.). Surgical Procedure The rats were prepared with 11 mm stainless steel bipolar electrodes (Plastics One; diameter=0.25 mm) in the posterior lateral hypothalamus (AP −0.5 mm from bregma; L±1.7 mm; DV −8.3 mm from dura, with the incisor bar set at 5 mm above the interaural line; Pellegrino et al. 1979 under halothane anaesthesia (1-1.5% halothane/oxygen mixture). Subjects were allowed to recover for at least seven days before any behavioral testing. Half of the electrodes were positioned on the right hemisphere and the other half on the left hemisphere to counterbalance possible brain asymmetries. […] The subjects were initially trained to turn the wheel manipulandum on a fixed ratio 1 schedule of reinforcement. […] The current intensity delivered was adjusted for each animal and typically ranged from 100 to 200 μA. After successful familiarization with this procedure (2 sessions of 100 reinforcers in less than 20 minutes), the rats were gradually trained on a discrete-trial, current-threshold procedure. At the start of each trial rats received a non-contingent electrical stimulus. During the following 7.5 sec, the limited hold, if the subjects responded by turning the wheel manipulandum a quarter turn (positive response) they received a second, contingent stimulus identical to the previous non-contingent stimulus. During a 2 sec period immediately following a positive response, further responses were recorded as extra responses but had no consequence. If no response occurred during the 7.5 sec limited hold period a negative response was recorded. […] Stimulation intensities were varied according to the classical psychophysical method of limits. The subjects received four alternating series of ascending and descending current intensities starting with a descending series. Within each series the stimulus intensity was altered by 5 μA steps between each set of trials (three trials per set). After training in the above procedure, rats were tested until stable baseline thresholds had been achieved L+10% over a 5-day period). […] During the ascending series, the reverse situation defined the threshold. Thus, during each session, four current-thresholds were recorded and the mean of these values was taken as the current-threshold for each subject for each test session. Response Latency: The latency between the onset of the non-contingent stimulus and a positive response was recorded as the response latency. The response latency for each test session was defined as the mean response latency of all trials during which a positive response occurred. […]

Wistar rats = assay: Cocaine-induced lowering of ICSS thresholds; format: in vivo, rat
[3] = CGP44532 0.065 mg/kg i.p., Nicotine-treated rats
[4] = CGP44532 0.065 mg/kg i.p., Vehicle-treated rats
[5] = CGP44532 0.125 mg/kg i.p., Nicotine-treated rats
[6] = CGP44532 0.125 mg/kg i.p., Vehicle-treated rats
[7] = CGP44532 0.25 mg/kg i.p., Nicotine-treated rats
[8] = CGP44532 0.25 mg/kg i.p., Vehicle-treated rats
[9] = CGP44532 0.5 mg/kg i.p., Nicotine-treated rats
[10] = CGP44532 0.5 mg/kg i.p., Vehicle-treated rats
[11] = MK-801 0.01 mg/kg i.p., Nicotine-treated rats
[12] = MK-801 0.01 mg/kg i.p., Vehicle-treated rats
[13] = MK-801 0.03 mg/kg i.p., Nicotine-treated rats
[14] = MK-801 0.03 mg/kg i.p., Vehicle-treated rats
[15] = MK-801 0.1 mg/kg i.p., Nicotine-treated rats
[16] = MK-801 0.1 mg/kg i.p., Vehicle-treated rats
[17] = MK-801 0.15 mg/kg i.p., Nicotine-treated rats
[18] = MK-801 0.15 mg/kg i.p., Vehicle-treated rats
[19] = MK-801 0.175 mg/kg i.p., Nicotine-treated rats
[20] = MK-801 0.175 mg/kg i.p., Vehicle-treated rats
[21] = MK-801 0.2 mg/kg i.p., Nicotine-treated rats
[22] = MK-801 0.2 mg/kg i.p., Vehicle-treated rats
[23] = chronic amphetamine administration

## CP(=O)(O)C[C@@H](O)CN [CGP44532, 3-Amino-2-(S)-hydroxypropyl-methyl-phosphinic acid]
Male Wistar rats [1]; [3]
  ICSS Thresholds: 96.37 ± 3.2 percentage of baseline
  ICSS response Latencies: 106.02 ± 8.1 percentage of baseline
Male Wistar rats [1]; [4]
  ICSS Thresholds: 96.28 ± 3.1 percentage of baseline
  ICSS response Latencies: 97.31 ± 3.8 percentage of baseline
Male Wistar rats [1]; [5]
  ICSS Thresholds: 103.88 ± 7.2 percentage of baseline
  ICSS response Latencies: 98.15 ± 5.3 percentage of baseline
Male Wistar rats [1]; [6]
  ICSS Thresholds: 106.76 ± 3.2 percentage of baseline
  ICSS response Latencies: 102.34 ± 2.8 percentage of baseline
Male Wistar rats [1]; [7]
  ICSS Thresholds: 109.98 ± 5.4 percentage of baseline
  ICSS response Latencies: 99.05 ± 3.1 percentage of baseline
Male Wistar rats [1]; [8]
  ICSS Thresholds: 109.14 ± 5.1 percentage of baseline
  ICSS response Latencies: 105.03 ± 3.1 percentage of baseline
Male Wistar rats [1]; [9]
  ICSS Thresholds: 146.83 ± 14.3 percentage of baseline
  ICSS response Latencies: 98.11 ± 5.4 percentage of baseline
Male Wistar rats [1]; [10]
  ICSS Thresholds: 148.43 ± 16.6 percentage of baseline
  ICSS response Latencies: 106.13 ± 6.5 percentage of baseline
Male Wistar rats [1]; CGP44532 0.5 mg/kg, p<0.001
  ICSS reward thresholds: elevated reward thresholds in nicotine-treated and control rats
Male Wistar rats [1]; CGP44532 0.065-0.25 mg/kg, nicotine treated rats
  ICSS reward thresholds: did not precipitate reward threshold elevations in nicotine treated rats at the lowest doses tested
Male Wistar rats [1]; CGP44532 0.065-0.5 mg/kg
  ICSS response Latencies: had no effect on response latencies at any dose tested
drug-naïve rats
  dose that elevated ICSS thresholds in drug-naïve rats: ≥ 0.25 mg/kg

## C[C@]12N[C@H](Cc3ccccc31)c1ccccc12 [MK-801, (5R,10S)-(+)-5-Methyl-10,11-dihydro-5H-dibenzo(a,d)cyclohepten-5,10-imine hydrogen maleate]
Male Wistar rats [1]; [11]
  ICSS Thresholds: 98.20 ± 6.1 percentage of baseline
  ICSS response Latencies: 95.41 ± 2.3 percentage of baseline
Male Wistar rats [1]; [12]
  ICSS Thresholds: 95.99 ± 3.3 percentage of baseline
  ICSS response Latencies: 100.00 ± 2.5 percentage of baseline
Male Wistar rats [1]; [13]
  ICSS Thresholds: 93.09 ± 3.9 percentage of baseline
  ICSS response Latencies: 94.64 ± 3.6 percentage of baseline
Male Wistar rats [1]; [14]
  ICSS Thresholds: 92.54 ± 2.6 percentage of baseline
  ICSS response Latencies: 103.14 ± 2.1 percentage of baseline
Male Wistar rats [1]; [15]
  ICSS Thresholds: 89.42 ± 3.6 percentage of baseline
  ICSS response Latencies: 106.14 ± 4.4 percentage of baseline
Male Wistar rats [1]; [16]
  ICSS Thresholds: 88.48 ± 5.6 percentage of baseline
  ICSS response Latencies: 98.97 ± 3.9 percentage of baseline
Male Wistar rats [1]; [17]
  ICSS Thresholds: 76.24 ± 4.7 percentage of baseline
  ICSS response Latencies: 93.65 ± 3.6 percentage of baseline
Male Wistar rats [1]; [18]
  ICSS Thresholds: 87.14 ± 4.6 percentage of baseline
  ICSS response Latencies: 101.60 ± 2.0 percentage of baseline
Male Wistar rats [1]; [19]
  ICSS Thresholds: 82.26 ± 3.7 percentage of baseline
  ICSS response Latencies: 93.56 ± 4.2 percentage of baseline
Male Wistar rats [1]; [20]
  ICSS Thresholds: 93.64 ± 3.4 percentage of baseline
  ICSS response Latencies: 119.22 ± 11.9 percentage of baseline
Male Wistar rats [1]; [21]
  ICSS Thresholds: 84.29 ± 3.0 percentage of baseline
  ICSS response Latencies: 105.14 ± 1.9 percentage of baseline
Male Wistar rats [1]; [22]
  ICSS Thresholds: 82.47 ± 4.3 percentage of baseline
  ICSS response Latencies: 119.21 ± 9.4 percentage of baseline
Male Wistar rats [1]; MK-801 0.01-0.2 mg/kg
  ICSS reward thresholds: lowered reward thresholds in nicotine-treated and control rats
Male Wistar rats [1]; MK-801, nicotine-treated rats
  withdrawal-like elevations in reward thresholds: did not precipitate withdrawal-like elevations in reward thresholds in nicotine-treated rats at any dose tested
Male Wistar rats [1]; MK-801, p<0.05, particularly in control rats
  ICSS response Latencies: did significantly increase response latencies
Male Wistar rats [1]; both groups, rats no longer responded for self-stimulation
  Doses causing disruption in performance in the ICSS paradigm: ≥ 0.2 mg/kg

## NS(=O)(=O)c1cccc2c1c([N+](=O)[O-])cc1[nH]c(=O)c(=O)[nH]c12.[Na].[Na] [NBQX, 2,3-dioxo-6-nitro-1,2,3,4-tetrahydrobenzo(f)quinoxaline-7-sulphonamide disodium]
Male Wistar rats [1]; NBQX 0.01-1 mg/kg
  ICSS response Latencies: had no effect on response latencies in nicotine-treated or control rats at any dose tested
  ICSS reward thresholds: significantly altered ICSS reward thresholds in nicotine-treated but not control rats
Male Wistar rats [1]; NBQX 0.025-0.1 mg/kg, nicotine-treated rats
  ICSS reward thresholds: elevated reward thresholds in nicotine-treated rats
Male Wistar rats [1]; NBQX 0.5-1 mg/kg, nicotine-treated rats
  ICSS reward thresholds: did not significantly increase thresholds compared to vehicle treatment

## C[C@H](N)Cc1ccccc1 [amphetamine, d-Amphetamine sulfate]
Male Wistar rats [2]; amphetamine-exposed rats treated with vehicle
  reward thresholds during amphetamine withdrawal: exhibited elevated thresholds at withdrawal hours 12, 36, 42, 60 and 84
Male Wistar rats [2]; [23]
  body weight: significantly reduced the body weight of animals
  response latencies: did not significantly differ from those of the saline-exposed rats at any stage during chronic drug treatment
Male Wistar rats [2]; chronic amphetamine administration, four day treatment, 1-5 mg/kg three times a day
  reward thresholds: significantly elevated thresholds

## COC(=O)[C@H]1[C@@H](OC(=O)c2ccccc2)C[C@@H]2CC[C@H]1N2C.Cl [cocaine, Cocaine hydrochloride]
Wistar rats; cocaine 10 mg/kg
  ICSS response Latencies: significantly decreased ICSS response latencies
Wistar rats; cocaine 10 mg/kg i.p.
  ICSS Thresholds: significantly lowered ICSS thresholds
Wistar rats; cocaine 10 mg/kg, at 10 and 40 min after cocaine injection
  ICSS thresholds, time course: significantly lowered in cocaine-treated rats, pretreated with vehicle
